Experimental data from patent US8598339B2, “Withanolide isolated from Physalis longifolia and analogs and methods of use thereof” (University of Kansas, priority 2011, dated 2013).

What was measured:
Ames test strain TA98 = experiment: Ames test, TA98; settings: 2.5E−06 M
Ames test strain TA100 = experiment: Ames test, TA100; settings: 2.5E−06 M
Ames test strain TA1535 = experiment: Ames test, TA1535; settings: 2.5E−06 M
[1] = test system: human melanoma SKMEL28 cells; experiment: MTS cell viability assay, SKMEL28; format: cell-based; settings: for IC90: SK-MEL-28, Table 6
Method: (§1) Human carcinoid cells, NCI-H727 (ATCC, Manassas, Va.), were cultured under standard conditions. Squamous cell carcinoma of head and neck cells, MDA1986 (Myers, et al. (2002) Clin. Cancer Res. 8:293) and JMAR (Swan, et al. (2003) Oral Oncol. 39:648-55); and melanoma cells lines B16F10 (ATCC, Manassas, Va.) and SKMEL28 (CLS, Eppelheim, Germany) were cultured in DMEM medium supplemented with 10% heat-inactivated fetal bovine serum (Sigma-Aldrich, St. Louis, Mo.), 1×MEM-essential amino acid, 1×MEM vitamin, and penicillin/streptomycin (Sigma-Aldrich, St. Louis, Mo.) in a humid environment of 5% CO2 at 37° C. Activity of withanolides against DRO81-1 and TT medullary thyroid cancer cells was also determined.
(§2) Cells were cultured in 96 well plates at a concentration of 1-2×10^4 cells/mL. Cell viability was assessed with the nonradioactive cell proliferation MTS assay using Cell Titer 96AQUEOUS One Solution Reagent (PROMEGA, Madison, Wis.), according to the manufacturer's instruction. After a 72-hour treatment, 20 μL of Cell Titer 96AQUEOUS One Solution Reagent were added to each well and incubated for 3 hours at 37° C. 5% CO2, and formazan absorbance was measured at 490 nm.
A cell viability MTS assay was carried out to determine the anti-cancer effect of the withanolides on human melanoma SKMEL28 cells. Cells were treated for 72 hours and cell viability was determined according to the manufacturer's instruction.

melanoma cells B16F10 = experiment: MTS cell viability assay, B16F10; format: cell-based; settings: Mus musculus; for IC50: B16-F10, Table 5; for IC90: B16-F10, Table 6
Method: as §1, §2

[2] = test system: squamous cell carcinoma of head and neck cells MDA1986; experiment: MTS cell viability assay, MDA1986; format: cell-based; settings: for IC50: Table 5; for IC90: Table 6
Method: as §1, §2

[3] = test system: squamous cell carcinoma of head and neck cells JMAR; experiment: MTS cell viability assay, JMAR; format: cell-based; settings: for IC50: Table 5; for IC90: Table 6
Method: as §1, §2

MRC-5 = experiment: MTS cell viability assay, MRC-5; format: cell-based; settings: Homo sapiens, MRC5, Table 5
[4] = Table 3, treated for 72 hours, NA = no activity
[5] = Homo sapiens, SK-MEL-28, Table 5

Structure (SMILES) | IC50 (melanoma cells B16F10) | IC50 [1, 5] | IC50 [2] | IC50 [3] | IC50 (MRC-5) | also measured
CN(N=O)C(=O)N[C@H]1C(O)O[C@H](CO)[C@@H](O)[C@@H]1O (mixture of isomers) [Streptoxotocin, reference compound] |  |  |  |  |  | Positive Significance (− to +++) (Ames test strain TA98; TA98 +S9): −; Positive Significance (− to +++) (Ames test strain TA98; TA98 −S9): −; Positive Significance (− to +++) (Ames test strain TA100; TA100 +S9): +++ (Very strong positive, if p < 0.001, denoted as “+++”.); Positive Significance (− to +++) (Ames test strain TA100; TA100 −S9): +++ (Very strong positive, if p < 0.001, denoted as “+++”.); Positive Significance (− to +++) (Ames test strain TA1535; TA1535 +S9): ++ (Strong positive, if p < 0.01, denoted as “++”.); Positive Significance (− to +++) (Ames test strain TA1535; TA1535 −S9): +++ (Very strong positive, if p < 0.001, denoted as “+++”.)
C=CCNC1=C2C[C@@H](C)C[C@H](OC)[C@H](O)[C@@H](C)/C=C(\C)[C@H](OC(N)=O)[C@@H](OC)/C=C\C=C(/C)C(=O)NC(=CC1=O)C2=O [17 AAG, 17-allylamino-17-demethoxygeldanamycin, reference compound] |  |  |  |  |  | IC50 [1, 4]: 0.23 µM
CC1=C(CO)C(=O)OC(C(C)C2CCC3C4CC(O)C5(C=O)CCC(=O)C5(C)C4CCC23C)C1 (stereo not drawn) [Compound O010, 22R-5β-formyl-6β,27-dihydroxyl-1-oxo-4-norwith-24-enolide, reference compound] |  |  |  |  |  | IC50 [1, 4]: 17 µM
CC1=C(CO)C(=O)O[C@@H]([C@@H](C)[C@H]2CC[C@H]3[C@@H]4CC=C5C=CC(=O)[C@]5(C)[C@H]4CC[C@]23C)C1 [Compound X006] | 19.2 µM | > 25 µM | > 25 µM | 19.7 µM | > 25 µM | 
CO[C@H]1CC(=O)[C@]2(C)[C@@H]3[C@@H](C[C@H]4O[C@]42[C@H]1O)[C@@H]1CC[C@H]([C@H](C)[C@H]2CC(C)=C(CO)C(=O)O2)[C@@]1(C)C[C@@H]3O [Compound X007] | 5.57 µM | 11.6 µM | 8.34 µM | 12 µM | 7.33 µM | 
CC1=C(COC2OC(CO)C(OC3OC(C)C(O)C(O)C3O)C(O)C2O)C(=O)O[C@@H]([C@@H](C)[C@H]2CC[C@H]3[C@@H]4C[C@H]5O[C@]56[C@@H](O)C=CC(=O)[C@]6(C)[C@H]4CC[C@]23C)C1 (some centres unmarked) [Compound X011] | > 25 µM | 17.4 µM | 8.1 µM | 8.24 µM | 8.72 µM | 
CC1=C(CO)C(=O)O[C@@](C)([C@@H](C)[C@H]2CC[C@H]3[C@@H]4CC=C5C[C@@H](OC6OC(CO)C(O)C(O)C6O)CC(=O)[C@]5(CO)[C@H]4CC[C@]23C)C1 (some centres unmarked) [Compound X012] | 10.7 µM | > 25 µM | > 25 µM | > 25 µM | > 25 µM | 
CC1=C(COC2OC(CO)C(O)C(O)C2O)C[C@H]([C@@H](C)[C@H]2CC[C@H]3[C@@H]4CC=C5C[C@@H](O)C[C@H](O)[C@]5(CO)[C@H]4CC[C@]23C)OC1=O (some centres unmarked) [Compound X013] | > 25 µM | > 25 µM | > 25 µM | > 25 µM | > 25 µM | 
CC1=C(COC2OC(CO)C(O)C(O)C2O)C[C@H]([C@@H](C)[C@H]2CC[C@H]3[C@@H]4CC(=O)C5=C(CC[C@@H](O)C5)[C@H]4CC[C@]23C)OC1=O (some centres unmarked) [Compound X014] | > 25 µM | > 25 µM | > 25 µM | > 25 µM | > 25 µM | 
CC1=C(COC2OC(CO)C(O)C(O)C2O)C[C@H]([C@@H](C)[C@H]2CC[C@H]3[C@@H]4C[C@H](O)c5cccc(O)c5[C@H]4CC[C@]23C)OC1=O (some centres unmarked) [Compound X015] | > 25 µM | > 25 µM | > 25 µM | > 25 µM | > 25 µM | 
CC1=C(COC2OC(CO)C(O)C(O)C2O)C[C@H]([C@@H](C)[C@H]2CC[C@H]3[C@@H]4CCC5=C(C(=O)C[C@H](O)C5)[C@H]4CC[C@]23C)OC1=O (some centres unmarked) [Compound X026B] | 11 µM | > 25 µM | > 25 µM | > 25 µM | 13.5 µM | 
CC1=C(C)C(=O)O[C@@H]([C@@H](C)[C@H]2CC[C@H]3[C@@H]4C[C@H]5O[C@]56[C@@H](O)C=CC(=O)[C@]6(CO)[C@H]4CC[C@]23C)C1 [Compound X030B] | 0.2 µM | 3.91 µM | 1.3 µM | 0.17 µM | 0.4 µM | 
CC1=C(CO)C(=O)O[C@@H]([C@@H](C)[C@H]2CC[C@H]3[C@@H]4C[C@H]5O[C@]56[C@@H](OC(=O)CN(C)C)C=CC(=O)[C@]6(C)[C@H]4CC[C@]23C)C1 [Compound X036] | 4.37 µM | 2.35 µM | 1.59 µM | 3.53 µM | 3.69 µM | 
CC(=O)OCC1=C(C)C[C@H]([C@@H](C)[C@H]2CC[C@H]3[C@@H]4C[C@H]5O[C@]56[C@@H](O)C=CC(=O)[C@]6(CO)[C@H]4CC[C@]23C)OC1=O [HFM-JA-336A] | 0.28 µM | 0.58 µM |  | 3.6 µM |  | IC90 (melanoma cells B16F10): 2.7 µM; IC90 ([1]; Homo sapiens): 0.86 µM; IC90 [2]: 2.7 µM; IC90 [3]: 9.8 µM
CC(=O)OC[C@]12C(=O)C=C[C@H](O)[C@]13O[C@@H]3C[C@H]1[C@@H]3CC[C@H]([C@H](C)[C@H]4CC(C)=C(CO)C(=O)O4)[C@@]3(C)CC[C@@H]12 [HFM-JA-336B] | 0.37 µM | 0.24 µM |  | 1.2 µM |  | IC90 (melanoma cells B16F10): 1.2 µM; IC90 ([1]; Homo sapiens): 1.16 µM; IC90 [2]: 1.2 µM; IC90 [3]: 3.1 µM
CC(=O)O[C@H]1C=CC(=O)[C@]2(CO)[C@H]3CC[C@]4(C)[C@@H]([C@H](C)[C@H]5CC(C)=C(CO)C(=O)O5)CC[C@H]4[C@@H]3C[C@H]3O[C@]132 [HFM-JA-336C] | 0.69 µM | 0.57 µM |  | 2 µM |  | IC90 (melanoma cells B16F10): 2.5 µM; IC90 ([1]; Homo sapiens): 1.21 µM; IC90 [2]: 2.5 µM; IC90 [3]: 6.5 µM
CC(=O)OCC1=C(C)C[C@H]([C@@H](C)[C@H]2CC[C@H]3[C@@H]4C[C@H]5O[C@]56[C@@H](O)C=CC(=O)[C@]6(COC(C)=O)[C@H]4CC[C@]23C)OC1=O [HFM-JA-336D] | 0.37 µM | 0.27 µM |  | 1.45 µM |  | IC90 (melanoma cells B16F10): 2.5 µM; IC90 ([1]; Homo sapiens): 0.42 µM; IC90 [2]: 2.5 µM; IC90 [3]: 7.1 µM
CC1=C(COC(=O)c2ccc(Cl)cc2)C(=O)O[C@@H]([C@@H](C)[C@H]2CC[C@H]3[C@@H]4C[C@H]5O[C@]56[C@@H](OC(=O)c5ccc(Cl)cc5)C=CC(=O)[C@]6(CO)[C@H]4CC[C@]23C)C1 [HFM-JA-398B] | 10 µM | > 25 µM | > 25 µM | 10.6 µM | 7.13 µM | 
CC1=C(CO)C(=O)O[C@@H]([C@@H](C)[C@H]2CC[C@H]3[C@@H]4C[C@H]5O[C@]56[C@@H](OC(=O)c5ccc(Cl)cc5)C=CC(=O)[C@]6(CO)[C@H]4CC[C@]23C)C1 [HFM-JA-398H] | 2.35 µM | 3.45 µM | 6.05 µM | 2.61 µM | 5.29 µM | 
CC(=O)OC[C@]12C(=O)C=C[C@H](OC(=O)c3ccc(Cl)cc3)[C@]13O[C@@H]3C[C@H]1[C@@H]3CC[C@H]([C@H](C)[C@H]4CC(C)=C(COC(=O)c5ccc(Cl)cc5)C(=O)O4)[C@@]3(C)CC[C@@H]12 [HFM-JA-400] | 9.04 µM | > 25 µM | > 25 µM | > 25 µM | 10.8 µM | 
CC1=C(CO)C(=O)O[C@@H]([C@@H](C)[C@H]2CC[C@H]3[C@@H]4C[C@H]5O[C@]56[C@@H](OC(=O)N(C)C)C=CC(=O)[C@]6(CO)[C@H]4CC[C@]23C)C1 [HFM-JA-403] | 0.28 µM | 2.31 µM | 2.48 µM | 0.55 µM | 0.69 µM | 
CC1=C(CO)C(=O)O[C@@H]([C@@H](C)[C@H]2CC[C@H]3[C@@H]4C[C@H]5O[C@]56[C@@H](O)[C@@H](O)CC(=O)[C@]6(C)[C@H]4CC[C@]23C)C1 [Viscosalactone B, reference compound] |  |  |  |  |  | IC50 [1, 4]: 18.9 µM
